The text below walks through data of article PMC11763264, “Antibacterial and Antifungal Activities of Linear and Cyclic Peptides Containing Arginine, Tryptophan, and Diphenylalanine” (Antibiotics, 2025).

The subject of one test is S. aureus (ATCC 29213). Briefly: microbe, parasite or virus in culture. Type of test: cell-based, Staphylococcus aureus. Conditions: ATCC 29213, 24 h. As for the experimental part:
(§1) The antibacterial activity of all ten synthesized linear and cyclic peptides was evaluated against MRSA (ATCC BAA-1556), S. aureus (ATCC 29213), E. faecium (ATCC 700221), S. pneumoniae (ATCC 51938), E. faecalis (ATCC 29212), B. subtilis (ATCC-6633), K. pneumoniae (ATCC BAA-1705), P. aeruginosa (ATCC 27883), and E. coli (ATCC 25922). Meropenem and daptomycin were used as positive controls for this study. Certain peptides are marked as “NT” (not tested) against specific bacterial strains based on initial screening data. […] The MIC was determined by micro-broth dilution protocol, where the minimal concentrations were determined to be in wells with no visible bacterial growth.
(§2) All bacterial experiments were carried out in a laminar flow hood (Labconco, Kansas City, MO, USA). The bacterial strains were cultured following the guidelines set by the Clinical Laboratory Standards Institute (CLSI). Antibacterial assays were performed using a standard microtiter dilution method as described in previous studies. The minimum inhibitory concentration (MIC) refers to the lowest peptide concentration that inhibits bacterial growth in wells with no visible bacterial growth. MIC was determined by micro-broth dilution. Bacteria were cultured overnight in 6 mL of Luria Broth (LB). A stock solution of the peptide was prepared in water and DMSO, and a test compound solution with a concentration of 256 µg/mL was made in LB. Meropenem, with a solubility of 8 mg/mL, was prepared as a stock solution at 4 mg/500 µL. An aliquot of the overnight bacteria culture was diluted in normal saline (NS, 1 mL) until achieving a 0.5 McFarland turbidity (1.5 × 10^8 bacterial cell CFU/mL). A 0.5 McFarland compared solution (60 µL) was added to Mueller Hinton Broth (MH) 8940 µL to generate a 1/150 dilution. A 200 µL test compound solution was added to the first well of a 96-well plate, and the remaining wells (2–12) were filled with 100 µL of MH media using a multi-channel pipette from a sterile reservoir. A concentration of […] of the tested peptides was prepared from a stock solution of the samples for testing in Muller−Hinton broth MH media. Peptides stock solution was dissolved in 5% DMSO in water, and the final concentration of DMSO in the first well of assay plate was 2.5% DMSO/H2O and diluted across the assay plate.
(§3) A 100 µL sample from well 1 was pipetted into well 2, and the solution was mixed thoroughly by pipetting up and down. Next, 100 µL was transferred from well 2 to well 3, followed by thorough mixing. This 2-fold serial dilution process continued through well 11, with no additions made to well 12. The final 100 µL from well 11 was discarded. After completing the serial dilution, each well (1–12) contained 100 µL of solution. The bacterial culture in MH media was vortexed and transferred to a sterile reservoir, from which 100 µL was added to each well using a 12-channel pipette. (Note: The dilutions were further diluted upon adding the bacterial solution; for example, the concentration in well 1 started at […] after the addition of the bacterial culture.) The plates were incubated overnight at 37 °C for 24 h. All experiments were performed in triplicate and repeated twice, with controls consisting of bacteria in MH media and positive controls of daptomycin or meropenem.

For a further test, the system named is E. faecium (ATCC 700221). Briefly: microbe, parasite or virus in culture. Type of test: cell-based, Enterococcus faecium. The following applies: ATCC 700221, 24 h. On the procedure:
as §1, §2, §3

Another test concerns E. faecalis (ATCC 29212). Description: microbe, parasite or virus in culture. The class given is cell-based, Enterococcus faecalis. Conditions: ATCC 29212, 24 h. As for the experimental part: as §1, §2, §3
The test system of test [1] is K. pneumoniae (ATCC BAA-1705). Briefly: microbe, parasite or virus in culture. Type of test: cell-based, Klebsiella pneumoniae. Conditions: ATCC BAA-1705, 24 h. On the procedure:
as §1, §2, §3

Test [2] concerns C. parapsilosis (ATCC 22019). Briefly: microbe, parasite or virus in culture. The class given is cell-based, Candida parapsilosis. Conditions: ATCC 22019, 24 h. As for the experimental part:
(§4) The antifungal activity of all ten synthesized linear and cyclic peptides was evaluated against C. albicans (ATCC 60193), C. parapsilosis (ATCC 22019), and A. fumigatus (AF-293). Fluconazole and amphotericin B were used as positive controls for this study. The MIC was determined at concentrations in wells with no visible fungal growth.
(§5) In this study, C. albicans and C. parapsilosis were cultured on Yeast Peptone Dextrose (YPD) agar containing 1% w/v yeast extract, 2% w/v peptone, 2% w/v D-glucose, and 1.5% agar. A single colony from the agar was selected and cultured in Tryptone soy broth supplemented with 0.1% D-glucose, then incubated for 24 h at 37 °C. The cells were washed twice with PBS by centrifugation at 2000 RPM for 5 min. The pellet was resuspended in 5 mL of PBS, diluted in RPMI 1640 with L-glutamine, supplemented with 2% D-glucose, and the pH adjusted using HEPES buffer. The suspension was then incubated for 50 min at 35 °C to achieve a final cell concentration of 10^6 cells/mL.
(§6) Peptide concentrations of 50, 25, 12.5, 6.25, and 3.1 μg/mL were tested in triplicate and repeated twice. Each well of a 96-well plate was inoculated with the prepared inoculum suspension, which was diluted with RPMI media to a final volume of 200 μL per well. The control well received the same inoculum without any compound. The plates were incubated for 24 h at 37 °C. Fungal and microbial growth were visually observed in the control wells, and the minimum inhibitory concentration (MIC) was determined as the lowest concentration at which no growth was detected in the wells. Amphotericin B was used as a standard antifungal drug.

Test [3] relates to S. pneumoniae (ATCC 51938). Description: microbe, parasite or virus in culture. The class given is cell-based, Streptococcus pneumoniae. Conditions: ATCC 51938, 24 h. As for the experimental part:
as §1, §2, §3

In the next test the test system is MRSA (ATCC BAA-1556). Briefly: microbe, parasite or virus in culture. The following applies: ATCC BAA-1556, 24 h. Type of test: cell-based, Methicillin-Resistant Staphylococcus aureus. On the procedure:
as §1, §2, §3

For the next test, the system named is C. albicans (ATCC 60193). Briefly: microbe, parasite or virus in culture. The class given is cell-based, Candida albicans. The following applies: ATCC 60193, 24 h. On the procedure:
as §4, §5, §6

In test [4] the test system is P. aeruginosa (ATCC 27883). Description: microbe, parasite or virus in culture. The class given is cell-based, Pseudomonas aeruginosa. Conditions: ATCC 27883, 24 h. On the procedure: as §1, §2, §3
In the next test the test system is E. coli (ATCC 25922). Briefly: microbe, parasite or virus in culture. Type of test: cell-based, Escherichia coli. The following applies: ATCC 25922, 24 h. As for the experimental part: as §1, §2, §3
The test system of another test is B. subtilis (ATCC-6633). Description: microbe, parasite or virus in culture. Type of test: cell-based, Bacillus subtilis. Conditions: ATCC-6633, 24 h. On the procedure:
as §1, §2, §3

In the next test the test system is MRSA. The following applies: previous work; cited from earlier work. The text has this:
We have previously reported the synthesis of [E4W4], [KR5], [F4R5], [Y4R4], and [R4W4] and tested them against bacterial pathogens.

Values after ≈ are worked out from the molar mass of the structure shown. Non-standard residues stand in square brackets, D forms with d. Residues, ends and D or L forms follow the SMILES beside them. Dip = N[C@H](C(=O)O)C(c1ccccc1)c1ccccc1

Regarding `N=C(N)NCCC[C@H](NC(=O)[C@@H](NC(=O)[C@H](CCCNC(=N)N)NC(=O)[C@H](Cc1c[nH]c2ccccc12)NC(=O)[C@H](CCCNC(=N)N)NC(=O)[C@H](Cc1c[nH]c2ccccc12)NC(=O)[C@H](CCCNC(=N)N)NC(=O)[C@H](Cc1c[nH]c2ccccc12)NC(=O)[C@H](CCCNC(=N)N)NC(=O)[C@@H](N)Cc1c[nH]c2ccccc12)C(c1ccccc1)c1ccccc1)C(=O)O` [((DipR)(WR)4)] (H-WRWRWRWR[Dip]R-OH), the MIC against S. aureus (ATCC 29213) was 6.3 µM (≈ 11.1 µg/mL); in the test with E. faecium (ATCC 700221), 3.1 µM (≈ 5.48 µg/mL); against E. faecalis (ATCC 29212) it was 12.5 µM (≈ 22.1 µg/mL); in test [1], 12.5 µM (≈ 22.1 µg/mL); in test [2], 14.1 µM (≈ 24.9 µg/mL); in test [3], 0.78 µM (≈ 1.38 µg/mL). For the same compound, the MIC amounted to 6.3 µM (≈ 11.1 µg/mL) in the test on MRSA (ATCC BAA-1556); 28.2 µM (≈ 49.8 µg/mL) in the test on C. albicans (ATCC 60193); 25 µM (≈ 44.2 µg/mL) in [4]; 12.5 µM (≈ 22.1 µg/mL) in the test with E. coli (ATCC 25922); 3.1 µM (≈ 5.48 µg/mL) in the test with B. subtilis (ATCC-6633).
In the case of `N=C(N)NCCC[C@H](NC(=O)[C@H](CCCNC(=N)N)NC(=O)[C@@H](NC(=O)[C@H](CCCNC(=N)N)NC(=O)[C@@H](NC(=O)[C@H](CCCNC(=N)N)NC(=O)[C@@H](NC(=O)[C@H](CCCNC(=N)N)NC(=O)[C@@H](N)C(c1ccccc1)c1ccccc1)C(c1ccccc1)c1ccccc1)C(c1ccccc1)c1ccccc1)C(c1ccccc1)c1ccccc1)C(=O)O` [(DipR)4R] (H-[Dip]R[Dip]R[Dip]R[Dip]RR-OH), the MIC against S. aureus (ATCC 29213) is reported as 1.6 µM (≈ 2.71 µg/mL); against E. faecium (ATCC 700221), 1.6 µM (≈ 2.71 µg/mL); with E. faecalis (ATCC 29212), 3.1 µM (≈ 5.25 µg/mL); in test [1] it was 6.3 µM (≈ 10.7 µg/mL); in test [2], 7.4 µM (≈ 12.5 µg/mL); in test [3], 0.39 µM (≈ 0.66 µg/mL). Besides, the MIC with MRSA (ATCC BAA-1556) was determined as 1.6 µM (≈ 2.71 µg/mL); against C. albicans (ATCC 60193) it was 7.4 µM (≈ 12.5 µg/mL); in test [4] it was 12.5 µM (≈ 21.2 µg/mL); against E. coli (ATCC 25922), 6.3 µM (≈ 10.7 µg/mL); with B. subtilis (ATCC-6633), 1.6 µM (≈ 2.71 µg/mL).
With [R4W4], the “MIC against MRSA” value with MRSA is 2.67 µg/mL.
